Source: patent publication US20210070748A1, “INHIBITORS OF BRUTONS TYROSINE KINASE” (Pharmacyclics LLC, priority 2015, published 2021)

Assays:
SRC = SRC (Homo sapiens, UniProt P12931); assay: Inhibition of a panel of kinases, in vitro HotSpot kinase assay: SRC; assay type: biochemical; conditions: D-compounds panel data; 1 μM ATP
Method: The degree of inhibition of a panel of kinases is determined using the in vitro HotSpot kinase assay (purified enzymes, ^33P-ATP, an appropriate substrate and 1 μM ATP).

BTK-WT = molecular target: T1, BTK-WT (Homo sapiens, UniProt Q06187); assay: Btk in vitro inhibitory activity (one of Method A TR-FRET, Method B electrophoretic mobility shift, Method C radiometric filter binding); assay type: biochemical; conditions: D-compounds panel data; read-out: IC50 BTK-WT
T1 construct: purified from insect cells as a full-length construct containing an N-terminal 6X-His tag; His6 (N); made in house; host or cells: insect cells (baculovirus Sf21 in Method B)
T1 sequence (Q06187 whole entry): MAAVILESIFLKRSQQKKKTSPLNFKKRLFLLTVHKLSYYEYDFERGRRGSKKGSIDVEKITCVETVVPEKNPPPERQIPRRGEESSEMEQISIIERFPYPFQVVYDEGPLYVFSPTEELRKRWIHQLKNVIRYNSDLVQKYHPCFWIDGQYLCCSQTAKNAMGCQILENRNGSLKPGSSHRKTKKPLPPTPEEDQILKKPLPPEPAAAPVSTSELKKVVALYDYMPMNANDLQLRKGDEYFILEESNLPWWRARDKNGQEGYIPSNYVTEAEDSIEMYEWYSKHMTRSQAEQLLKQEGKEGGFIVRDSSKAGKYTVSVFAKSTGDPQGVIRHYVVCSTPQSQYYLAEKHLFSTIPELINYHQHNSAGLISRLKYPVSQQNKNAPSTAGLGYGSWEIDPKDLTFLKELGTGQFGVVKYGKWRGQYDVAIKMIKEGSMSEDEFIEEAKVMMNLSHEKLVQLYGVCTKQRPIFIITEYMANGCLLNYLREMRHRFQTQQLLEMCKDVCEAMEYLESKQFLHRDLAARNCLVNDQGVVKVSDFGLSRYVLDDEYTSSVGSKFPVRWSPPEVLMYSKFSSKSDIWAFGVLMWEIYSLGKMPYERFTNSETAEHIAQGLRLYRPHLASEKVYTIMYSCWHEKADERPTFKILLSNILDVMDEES

Sequence of SRC (P12931 whole entry): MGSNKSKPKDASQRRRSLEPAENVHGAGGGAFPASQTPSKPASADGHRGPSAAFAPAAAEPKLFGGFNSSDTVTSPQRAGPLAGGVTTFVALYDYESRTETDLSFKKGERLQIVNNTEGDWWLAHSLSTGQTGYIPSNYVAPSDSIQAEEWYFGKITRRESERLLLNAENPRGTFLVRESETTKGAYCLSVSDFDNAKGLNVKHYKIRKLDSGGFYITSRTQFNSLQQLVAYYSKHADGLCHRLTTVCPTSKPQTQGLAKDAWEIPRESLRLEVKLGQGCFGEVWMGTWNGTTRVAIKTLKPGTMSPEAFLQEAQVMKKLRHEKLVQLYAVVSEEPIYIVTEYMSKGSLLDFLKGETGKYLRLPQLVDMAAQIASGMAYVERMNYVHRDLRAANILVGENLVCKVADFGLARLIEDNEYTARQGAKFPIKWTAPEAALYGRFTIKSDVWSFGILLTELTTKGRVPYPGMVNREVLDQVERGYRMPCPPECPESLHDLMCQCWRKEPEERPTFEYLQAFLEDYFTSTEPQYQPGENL

Compound | IC50 (SRC) [nM] | IC50 (BTK-WT) [nM]
Cc1nc2cc(C(=O)N[C@@H]3CCCN(c4cnc(C(N)=O)c(Nc5cnn(C)c5)n4)[C@@H]3C)ccc2s1 [Example D-242, N-[(2R,3R)-1-{5-carbamoyl-6-[(1-methyl-1H-pyrazol-4-yl)amino]pyrazin-2-yl}-2-methylpiperidin-3-yl]-2-methyl-1,3-benzothiazole-5-carboxamide] | 10 to 100 | ≤ 10
Cc1cc(Nc2nc(N3CCC[C@H](c4ncc(-c5ccccc5)[nH]4)C3)cnc2C(N)=O)sn1 [Example D-172, 3-[(3-methyl-1,2-thiazol-5-yl)amino]-5-[(3S)-3-(5-phenyl-1H-imidazol-2-yl)piperidin-1-yl]pyrazine-2-carboxamide] | 100 to 1000 | 10 to 100
C[C@@H]1[C@H](NC(=O)c2ccc(C(C)(C)C)s2)CCCN1c1cnc(C(N)=O)c(Nc2cnn(C)c2)n1 [Example D-229, 5-[(2R,3R)-3-(5-tert-butylthiophene-2-amido)-2-methylpiperidin-1-yl]-3-[(1-methyl-1H-pyrazol-4-yl)amino]pyrazine-2-carboxamide] | 100 to 1000 | ≤ 10
C[C@@H]1[C@H](NC(=O)c2ccc(C3CC3)cn2)CCCN1c1cnc(C(N)=O)c(Nc2ccc(N3CCN(C)CC3)cc2)n1 [Example D-188, 5-[(2R,3R)-3-(5-cyclopropylpyridine-2-amido)-2-methylpiperidin-1-yl]-3-{[4-(4-methylpiperazin-1-yl)phenyl]amino}pyrazine-2-carboxamide] | 10 to 100 | ≤ 10
C[C@@H]1[C@H](NC(=O)c2ccc3c(c2)OCCO3)CCCN1c1cnc(C(N)=O)c(Nc2cnn(C)c2)n1 [Example D-224, 5-[(2R,3R)-3-(2,3-dihydro-1,4-benzodioxine-6-amido)-2-methylpiperidin-1-yl]-3-[(1-methyl-1H-pyrazol-4-yl)amino]pyrazine-2-carboxamide] | 10 to 100 | ≤ 10
C[C@@H]1[C@H](NC(=O)c2ccc(C3CC3)cc2F)CCCN1c1cnc(C(N)=O)c(Nc2cc(CN3CCOCC3)ns2)n1 [Example D-173, 5-[(2R,3R)-3-(4-cyclopropyl-2-fluorobenzamido)-2-methylpiperidin-1-yl]-3-{[3-(morpholin-4-ylmethyl)-1,2-thiazol-5-yl]amino}pyrazine-2-carboxamide] | 10 to 100 | ≤ 10
C[C@@H]1[C@H](NC(=O)c2ccc(C(O)(C(F)(F)F)C(F)(F)F)cc2)CCCN1c1cnc(C(N)=O)c(Nc2cnn(C)c2)n1 [Example D-240, 5-[(2R,3R)-3-[4-(1,1,1,3,3,3-hexafluoro-2-hydroxypropan-2-yl)benzamido]-2-methylpiperidin-1-yl]-3-[(1-methyl-1H-pyrazol-4-yl)amino]pyrazine-2-carboxamide] | 100 to 1000 | ≤ 10
COc1cc(C(=O)N[C@@H]2CCCN(c3cnc(C(N)=O)c(Nc4cnn(C)c4)n3)[C@@H]2C)ccc1C1CC1 [Example D-231, 5-[(2R,3R)-3-(4-cyclopropyl-3-methoxybenzamido)-2-methylpiperidin-1-yl]-3-[(1-methyl-1H-pyrazol-4-yl)amino]pyrazine-2-carboxamide] | 10 to 100 | ≤ 10
Cn1cc(Nc2nc(N3C4CCC(NC(=O)c5ccc(C6CC6)cc5)C3CC4)cnc2C(N)=O)cn1 (single isomer, unassigned) [Example D-200, 5-[2-(4-cyclopropylbenzamido)-8-azabicyclo[32.1]octan-8-yl]-3-[(1-methyl-1H-pyrazol-4-yl)amino]pyrazine-2-carboxamide] | 1000 to 10000 | 100 to 1000
Cc1nc2cc(C(=O)N[C@@H]3CCCN(c4cnc(C(N)=O)c(Nc5cnn(C)c5)n4)[C@@H]3C)ccc2o1 [Example D-238, N-[(2R,3R)-1-{5-carbamoyl-6-[(1-methyl-1H-pyrazol-4-yl)amino]pyrazin-2-yl}-2-methylpiperidin-3-yl]-2-methyl-1,3-benzoxazole-5-carboxamide] | 10 to 100 | ≤ 10
Cn1cc(Nc2nc(N3CCC[C@@H](n4ccc5cc(C6CC6)ncc5c4=O)C3)cnc2C(N)=O)cn1 [Example D-225, 5-[(3R)-3-(6-cyclopropyl-1-oxo-1,2-dihydro-2,7-naphthyridin-2-yl)piperidin-1-yl]-3-[(1-methyl-1H-pyrazol-4-yl)amino]pyrazine-2-carboxamide] | 10 to 100 | ≤ 10
Cc1cc(Nc2nc(N3C[C@H](NC(=O)c4ccc(C5CC5)cc4F)CC[C@@H]3C)cnc2C(N)=O)sn1 [Example D-181, 5-[(2S,5R)-5-(4-cyclopropyl-2-fluorobenzamido)-2-methylpiperidin-1-yl]-3-[(3-methyl-1,2-thiazol-5-yl)amino]pyrazine-2-carboxamide] | 10 to 100 | ≤ 10
C[C@@H]1[C@H](NC(=O)c2ccc(SC(F)(F)F)cc2)CCCN1c1cnc(C(N)=O)c(Nc2cnn(C)c2)n1 [Example D-241, 3-[(1-methyl-1H-pyrazol-4-yl)amino]-5-[(2R,3R)-2-methyl-3-{4-[(trifluoromethyl)sulfanyl]benzamido}piperidin-1-yl]pyrazine-2-carboxamide] | 10 to 100 | ≤ 10
C[C@@H]1[C@H](NC(=O)c2cnc(C(C)(C)C)s2)CCCN1c1cnc(C(N)=O)c(Nc2cnn(C)c2)n1 [Example D-239, 5-[(2R,3R)-3-(2-tert-butyl-1,3-thiazole-5-amido)-2-methylpiperidin-1-yl]-3-[(1-methyl-1H-pyrazol-4-yl)amino]pyrazine-2-carboxamide] | 10 to 100 | ≤ 10
C[C@@H]1[C@H](NC(=O)c2ccc(C3(O)CCCC3)cc2)CCCN1c1cnc(C(N)=O)c(Nc2cnn(C)c2)n1 [Example D-212, 5-[(2R,3R)-3-[4-(1-hydroxycyclopentyl)benzamido]-2-methylpiperidin-1-yl]-3-[(1-methyl-1H-pyrazol-4-yl)amino]pyrazine-2-carboxamide] | 10 to 100 | ≤ 10
Cn1cc(Nc2nc(N3C4CCC(NC(=O)c5ccc(C6CC6)cc5)C3CC4)cnc2C(N)=O)cn1 (single isomer, unassigned) [Example D-199, 5-[2-(4-cyclopropylbenzamido)-8-azabicyclo[3.2.1]octan-8-yl]-3-[(1-methyl-1H-pyrazol-4-yl)amino]pyrazine-2-carboxamide] | 1000 to 10000 | 1000 to 10000
Cc1cc(Nc2nc(N3CCC[C@@H](NC(=O)N4Cc5ccccc5C4=O)C3)cnc2C(N)=O)sn1 [Example D-15, N-[(3R)-1-{5-carbamoyl-6-[(3-methyl-1,2-thiazol-5-yl)amino]pyrazin-2-yl}piperidin-3-yl]-1-oxo-2,3-dihydro-1H-isoindole-2-carboxamide] | 10 to 100 | ≤ 10
Cc1cc(Nc2nc(N3CCC[C@@H](c4ncc(-c5ccccc5)[nH]4)C3)cnc2C(N)=O)sn1 [Example D-171, 3-[(3-methyl-1,2-thiazol-5-yl)amino]-5-[(3R)-3-(5-phenyl-1H-imidazol-2-yl)piperidin-1-yl]pyrazine-2-carboxamide] | 100 to 1000 | 10 to 100
Cn1cc(Nc2nc(N3CCC[C@@H](n4ccc5cc(C6CC6)ccc5c4=O)C3)cnc2C(N)=O)cn1 [Example D-184, 5-[(3R)-3-(6-cyclopropyl-1-oxo-1,2-dihydroisoquinolin-2-yl)piperidin-1-yl]-3-[(1-methyl-1H-pyrazol-4-yl)amino]pyrazine-2-carboxamide] | 1000 to 10000 | ≤ 10
C[C@@H]1[C@H](NC(=O)c2ccc3scnc3c2)CCCN1c1cnc(C(N)=O)c(Nc2ccc(N3CCN(C)CC3)cc2)n1 [Example D-226, N-[(2R,3R)-1-(5-carbamoyl-6-{[4-(4-methylpiperazin-1-yl)phenyl]amino}pyrazin-2-yl)-2-methylpiperidin-3-yl]-1,3-benzothiazole-5-carboxamide] | ≤ 10 | ≤ 10
C[C@@H]1[C@H](NC(=O)N(C)C)CCCN1c1cnc(C(N)=O)c(Nc2ccc(N3CCN(C4CCCC4)CC3)cc2)n1 [Example D-182, 3-{[4-(4-cyclopentylpiperazin-1-yl)phenyl]amino}-5-[(2R,3R)-3-[(dimethylcarbamoyl)amino]-2-methylpiperidin-1-yl]pyrazine-2-carboxamide] | 10 to 100 | ≤ 10
CC(C)c1ccc(C(=O)N[C@@H]2CCCN(c3cnc(C(N)=O)c(Nc4cnn(C)c4)n3)C2)cc1 [Example D-222, 3-[(1-Methyl-1H-pyrazol-4-yl)amino]-5-[(3R)-3-[4-(propan-2-yl)benzamido]piperidin-1-yl]pyrazine-2-carboxamide] | 1000 to 10000 | ≤ 10
CC(C)c1ccc(S(=O)(=O)N[C@@H]2CCCN(c3cnc(C(N)=O)c(Nc4cnn(C)c4)n3)[C@@H]2C)cc1 [Example D-220, 3-[(1-methyl-1H-pyrazol-4-yl)amino]-5-[(2R,3R)-2-methyl-3-[4-(propan-2-yl)benzenesulfonamido]piperidin-1-yl]pyrazine-2-carboxamide] | 1000 to 10000 | 1000 to 10000
C[C@@H]1[C@H](NC(=O)c2ccc3c(c2)OC(F)(F)O3)CCCN1c1cnc(C(N)=O)c(Nc2cnn(C)c2)n1 [Example D-216, 5-[(2R,3R)-3-(2,2-difluoro-2H-1,3-benzodioxole-5-amido)-2-methylpiperidin-1-yl]-3-[(1-methyl-1H-pyrazol-4-yl)amino]pyrazine-2-carboxamide] | 10 to 100 | ≤ 10
C[C@H]1CC[C@@H](NC(=O)c2ccc(C(C)(C)O)cc2)CN1c1cnc(C(N)=O)c(Nc2cnn(C)c2)n1 [Example D-236, 5-[(2S,5R)-5-[4-(2-hydroxypropan-2-yl)benzamido]-2-methylpiperidin-1-yl]-3-[(1-methyl-1H-pyrazol-4-yl)amino]pyrazine-2-carboxamide] | 10 to 100 | ≤ 10
